What all share (type): cell-based
Assay [1] concerns Mycobacterium aurum DSM 43999 (ATCC 23366). The experiment in a line: Antimycobacterial screening (microdilution broth, resazurin) against M. aurum. The conditions noted are these: for MIC: Mycolicibacterium aurum, read-out: MIC M. aurum; for MIC values for standards, range, M. aurum: range of MIC of the standards in the assay.
Assay [2] relates to Mycobacterium tuberculosis H37Ra. Kind of assay: Antimycobacterial screening (microdilution broth, resazurin) against M. tuberculosis H37Ra. The conditions noted are these: for MIC: Mycobacterium tuberculosis; for MIC values for standards, range, M. tuberculosis: range of MIC of the standards in the assay.
Assay [3] concerns Mycobacterium smegmatis DSM 43465 (ATCC 607). The experiment in a line: Antimycobacterial screening (microdilution broth, resazurin) against M. smegmatis. The conditions noted are these: for MIC: Mycolicibacterium smegmatis, read-out: MIC M. smegmatis.
[4] abbreviates: H37RA, read-out: MIC Mtb H37Ra (µM).
Where [5] appears, read: M. tuberculosis H37Ra, resazurin added after 120 h, read-out: MIC Mtb H37Ra.

Converted amounts (≈) assume the structure as drawn. Where two headings read alike, the source gives them in different places.

With `COc1ccc2c3c1O[C@H]1C[C@@H](O)C=C[C@@]31CCN(C)C2` [galanthamine (1), galanthamine, reference compound], the MIC is at least 500 µg/mL in assay [1] (72 h), at least 1740 µM in assay [2] (setting [4]), at least 500 µg/mL in assay [2] (setting [5]) and at least 500 µg/mL in assay [3] (48 h).

`COC1CC2C(=CC1OC(=O)c1ccc3ccccc3c1)C1CN2Cc2cc3c(cc21)OCO3` (stereo not shown) [3g, 2-O-(2-naphthoyl)-3-O-methylpancracine]: the MIC was found to be 15.6 µg/mL (≈ 34.3 µM) in assay [1] (72 h), 31.8 µM in assay [2] (setting [4]), 15.6 µg/mL in assay [2] (setting [5]) and 15.6 µg/mL (≈ 34.3 µM) in assay [3] (48 h).

As for `O[C@@H]1C=C[C@]23CCN(Cc4cc5c(cc42)OCO5)[C@H]3C1` [vittatine (4), vittatine], the MIC was 250 µg/mL (≈ 921 µM) in assay [1] (72 h), at least 1840 µM in assay [2] (setting [4]), at least 500 µg/mL in assay [2] (setting [5]) and at least 500 µg/mL in assay [3] (48 h).

For the compound `CO[C@H]1C=C2[C@H]3C[N@@](Cc4cc5c(cc43)OCO5)[C@H]2C[C@@H]1O` [montanine (8), montanine], the minimal inhibitory concentration (MIC) in assay [1] (72 h) was at least 500 µg/mL; in assay [2] (setting [4]), at least 1660 µM; in assay [2] (setting [5]) it was at least 500 µg/mL; in assay [3] (48 h), at least 500 µg/mL.

In the case of `COc1cc(C(=O)O[C@H]2C=C[C@@]34CCN(C)Cc5ccc(OC)c(c53)O[C@H]4C2)cc(OC)c1OC` [1o, 6-O-(3,4,5-trimethoxybenzoyl)galanthamine], the MIC in assay [1] (72 h) turned out to be 125 µg/mL (≈ 260 µM); in assay [2] (setting [4]) it was 121 µM; in assay [2] (setting [5]), 62.5 µg/mL; in assay [3] (48 h), 250 µg/mL (≈ 519 µM).

For `COc1ccc2c3c1O[C@H]1C[C@@H](OC(=O)c4ccco4)C=C[C@@]31CCN(C)C2` [1s, 6-O-(2-furoyl)galanthamine], the minimum inhibitory concentration (MIC) in assay [1] (72 h) was 250 µg/mL (≈ 655 µM); in assay [2] (setting [4]), 150 µM; in assay [2] (setting [5]), 62.5 µg/mL; in assay [3] (48 h), at least 500 µg/mL.

On to `COc1ccccc1C(=O)O[C@H]1C=C[C@@]23CCN(C)Cc4ccc(OC)c(c42)O[C@H]3C1` [1j, 6-O-(2-methoxybenzoyl)galanthamine], for which the MIC amounted to 125 µg/mL (≈ 297 µM) in assay [1] (72 h), 148 µM in assay [2] (setting [4]), 62.5 µg/mL in assay [2] (setting [5]) and 250 µg/mL (≈ 593 µM) in assay [3] (48 h).

Regarding `COc1ccc2c3c1O[C@H]1C[C@@H](OC(=O)c4ccccc4)C=C[C@@]31CCN(C)C2` [1a, 6-O-benzoylgalanthamine], the minimum inhibitory concentration (MIC) in assay [1] (72 h) is 31.2 µg/mL (≈ 79.8 µM); in assay [2] (setting [4]), 79.8 µM; in assay [2] (setting [5]) it was 31.2 µg/mL; in assay [3] (resazurin added after 48 h), at least 500 µg/mL.

Regarding `COc1ccc2c3c1O[C@H]1C[C@@H](OC(=O)c4ccc(C)cc4)C=C[C@@]31CCN(C)C2` [1d, 6-O-(4-methylbenzoyl)galanthamine], the minimal inhibitory concentration (MIC) amounted to 15.6 µg/mL (≈ 38.5 µM) in assay [1] (72 h), 35.4 µM in assay [2] (setting [4]), 15.6 µg/mL in assay [2] (setting [5]) and 31.2 µg/mL (≈ 77.1 µM) in assay [3] (48 h).

As for `COc1cc2c(cc1OC)[C@@]13C=C[C@@H](O)C[C@@H]1N(CC3)C2` [maritidine (5), maritidine], the MIC was at least 500 µg/mL in assay [1] (72 h), at least 1740 µM in assay [2] (setting [4]), at least 500 µg/mL in assay [2] (setting [5]) and at least 500 µg/mL in assay [3] (48 h).

Turning to `COC1C=CC23c4cc5c(cc4CN(CC2O)C3C1)OCO5` (stereo not shown) [haemanthamine (2), haemanthamine], the MIC in assay [1] (72 h) is at least 500 µg/mL; in assay [2] (setting [4]), at least 1660 µM; in assay [2] (setting [5]), at least 500 µg/mL; in assay [3] (48 h) it was at least 500 µg/mL.

Take `O[C@H]1[C@H]2c3cc4c(cc3CN3CCC(=C[C@@H]1O)[C@H]23)OCO4` [lycorine (7), lycorine]: the minimum inhibitory concentration (MIC) was at least 500 µg/mL in assay [1] (72 h), at least 1740 µM in assay [2] (setting [4]), at least 500 µg/mL in assay [2] (setting [5]) and at least 500 µg/mL in assay [3] (48 h).

On to `COc1ccc2c3c1O[C@H]1C[C@@H](OC(=O)c4cccc(C)c4)C=C[C@@]31CCN(C)C2` [1c, 6-O-(3-methylbenzoyl)galanthamine], for which the minimum inhibitory concentration (MIC) worked out at 15.6 µg/mL (≈ 38.5 µM) in assay [1] (72 h), 35.4 µM in assay [2] (setting [4]), 15.6 µg/mL in assay [2] (setting [5]) and 31.2 µg/mL (≈ 77.1 µM) in assay [3] (48 h).

For `COc1ccc(C(=O)O[C@H]2C=C[C@@]34CCN(C)Cc5ccc(OC)c(c53)O[C@H]4C2)cc1` [1l, 6-O-(4-methoxybenzoyl)galanthamine], the minimum inhibitory concentration (MIC) was determined as 31.2 µg/mL (≈ 74.1 µM) in assay [1] (72 h), 68.3 µM in assay [2] (setting [4]), 31.2 µg/mL in assay [2] (setting [5]) and 62.5 µg/mL (≈ 148 µM) in assay [3] (48 h).

`COc1cc2c(cc1OC)[C@@H](O)O[C@@H]1CC=C3CCN(C)[C@H]3[C@H]21` [lycorenine (9), lycorenine]: the minimum inhibitory concentration (MIC) in assay [1] (72 h) is at least 125 µg/mL; in assay [2] (setting [4]) it was at least 394 µM; in assay [2] (setting [5]), at least 125 µg/mL; in assay [3] (48 h), at least 125 µg/mL.

For `COc1cccc(C(=O)O[C@H]2C=C[C@@]34CCN(C)Cc5ccc(OC)c(c53)O[C@H]4C2)c1` [1k, 6-O-(3-methoxybenzoyl)galanthamine], the minimal inhibitory concentration (MIC) in assay [1] (72 h) stood at 31.2 µg/mL (≈ 74.1 µM); in assay [2] (setting [4]) it was 68.3 µM; in assay [2] (setting [5]) it was 31.2 µg/mL; in assay [3] (48 h) it was 62.5 µg/mL (≈ 148 µM).

On to `COc1cc2c(cc1OC)[C@@H]1[C@H](O)[C@@H](OC)C=C3CCN(C2)[C@H]31` [galanthine (6), galanthine], for which the MIC in assay [1] (72 h) was 250 µg/mL (≈ 788 µM); in assay [2] (setting [4]) it was 788 µM; in assay [2] (setting [5]), 250 µg/mL; in assay [3] (48 h), at least 500 µg/mL.

In the case of `COC1CC2C(=CC1O)C1CN2Cc2cc3c(cc21)OCO3` (stereo not shown) [3-O-methylpancracine (3), 3-O-methylpancracine], the MIC in assay [1] (72 h) is at least 500 µg/mL; in assay [2] (setting [4]), at least 1660 µM; in assay [2] (setting [5]), at least 500 µg/mL; in assay [3] (48 h), at least 500 µg/mL.

Regarding `CO[C@H]1/C=C/O[C@@]2(C)Oc3c(C)c(O)c4c(O)c(c(/C=N/N5CCN(C)CC5)c(O)c4c3C2=O)NC(=O)/C(C)=C\C=C\[C@H](C)[C@H](O)[C@@H](C)[C@@H](O)[C@@H](C)[C@H](OC(C)=O)[C@@H]1C` [rifampicin, reference compound], the MIC in assay [1] (resazurin added after 72 h) is 0.39 µg/mL (≈ 0.474 µM); in assay [2] (H37RA, 120 h, read-out: MIC Mtb H37Ra) it was 0.00625 µg/mL; in assay [2] (setting [4]), 0.0075 µM; in assay [3] (resazurin added after 48 h), 6.25 µg/mL (≈ 7.59 µM). Also, the “MIC values for standards, range, M. aurum” value in assay [1] was in the range of 0.39 to 0.78 µg/mL. Also, the “MIC values for standards, range, M. tuberculosis” value in assay [2] lay within 0.0039 to 0.0078 µg/mL.

Regarding `O=C(O)c1cn(C2CC2)c2cc(N3CCNCC3)c(F)cc2c1=O` [ciprofloxacin, reference compound], the minimum inhibitory concentration (MIC) in assay [1] (resazurin added after 72 h) was found to be 0.0156 µg/mL (≈ 0.0472 µM); in assay [2] (setting [4]), 0.75 µM; in assay [2] (setting [5]), 0.25 µg/mL; in assay [3] (resazurin added after 48 h) it was 0.125 µg/mL (≈ 0.377 µM). For the same compound, the “MIC values for standards, range, M. aurum” value in assay [1] is 0.0078 to 0.0156 µg/mL. The “MIC values for standards, range, M. tuberculosis” value in assay [2] was 0.125 to 0.25 µg/mL. Besides, the “MIC values for standards, range, M. smegmatis” value in assay [3] (range of MIC of the standards in the assay) was 0.0625 to 0.125 µg/mL.

For the compound `COc1ccc(C(=O)O[C@H]2C=C[C@@]34CCN(C)Cc5ccc(OC)c(c53)O[C@H]4C2)cc1OC` [1m, 6-O-(3,4-dimethoxybenzoyl)galanthamine], the minimum inhibitory concentration (MIC) in assay [1] (72 h) is 125 µg/mL (≈ 277 µM); in assay [2] (setting [4]) it was 128 µM; in assay [2] (setting [5]) it was 62.5 µg/mL; in assay [3] (48 h) it was 250 µg/mL (≈ 554 µM).

As for `COc1cc(OC)cc(C(=O)O[C@H]2C=C[C@@]34CCN(C)Cc5ccc(OC)c(c53)O[C@H]4C2)c1` [1n, 6-O-(3,5-dimethoxybenzoyl)galanthamine], the MIC in assay [1] (72 h) came to 31.2 µg/mL (≈ 69.2 µM); in assay [2] (setting [4]), 34.6 µM; in assay [2] (setting [5]) it was 15.6 µg/mL; in assay [3] (48 h) it was 31.2 µg/mL (≈ 69.2 µM).

Regarding `COc1ccc2c3c1O[C@H]1C[C@@H](OC(=O)c4ccccc4C)C=C[C@@]31CCN(C)C2` [1b, 6-O-(2-methylbenzoyl)galanthamine], the MIC in assay [1] (72 h) is 31.2 µg/mL (≈ 77.1 µM); in assay [2] (setting [4]) it was 35.4 µM; in assay [2] (setting [5]), 15.6 µg/mL; in assay [3] (48 h), 31.2 µg/mL (≈ 77.1 µM).

These data come from PMC8512562, “Semisynthetic Derivatives of Selected Amaryllidaceae Alkaloids as a New Class of Antimycobacterial Agents” (Molecules, 2021).
